Values belong to the molecule of their own block, whether it stands above or below them.
Columns and labels:
MDR1 (P-gp) = molecular target: T1, MDR1 (P-gp) (Homo sapiens, UniProt P08183); experiment: MDCK assay P-gp (permeability across MDCK-MDR1 monolayers); format: in vitro ADME; details: for Papp A→B at 2 h: apical-to-basal, MDCK-MDR1 monolayers, pH 7.4; for efflux ratio at 2 h: pH 7.4, Papp (b-a) divided by Papp (a-b), MDCK-MDR1, read-out: efflux ratio PEBA/PEAB
T1 construct: expressed in transfected cells; host or cells: MDCKII (Madin-Darby canine kidney)
T1 sequence (P08183 whole entry): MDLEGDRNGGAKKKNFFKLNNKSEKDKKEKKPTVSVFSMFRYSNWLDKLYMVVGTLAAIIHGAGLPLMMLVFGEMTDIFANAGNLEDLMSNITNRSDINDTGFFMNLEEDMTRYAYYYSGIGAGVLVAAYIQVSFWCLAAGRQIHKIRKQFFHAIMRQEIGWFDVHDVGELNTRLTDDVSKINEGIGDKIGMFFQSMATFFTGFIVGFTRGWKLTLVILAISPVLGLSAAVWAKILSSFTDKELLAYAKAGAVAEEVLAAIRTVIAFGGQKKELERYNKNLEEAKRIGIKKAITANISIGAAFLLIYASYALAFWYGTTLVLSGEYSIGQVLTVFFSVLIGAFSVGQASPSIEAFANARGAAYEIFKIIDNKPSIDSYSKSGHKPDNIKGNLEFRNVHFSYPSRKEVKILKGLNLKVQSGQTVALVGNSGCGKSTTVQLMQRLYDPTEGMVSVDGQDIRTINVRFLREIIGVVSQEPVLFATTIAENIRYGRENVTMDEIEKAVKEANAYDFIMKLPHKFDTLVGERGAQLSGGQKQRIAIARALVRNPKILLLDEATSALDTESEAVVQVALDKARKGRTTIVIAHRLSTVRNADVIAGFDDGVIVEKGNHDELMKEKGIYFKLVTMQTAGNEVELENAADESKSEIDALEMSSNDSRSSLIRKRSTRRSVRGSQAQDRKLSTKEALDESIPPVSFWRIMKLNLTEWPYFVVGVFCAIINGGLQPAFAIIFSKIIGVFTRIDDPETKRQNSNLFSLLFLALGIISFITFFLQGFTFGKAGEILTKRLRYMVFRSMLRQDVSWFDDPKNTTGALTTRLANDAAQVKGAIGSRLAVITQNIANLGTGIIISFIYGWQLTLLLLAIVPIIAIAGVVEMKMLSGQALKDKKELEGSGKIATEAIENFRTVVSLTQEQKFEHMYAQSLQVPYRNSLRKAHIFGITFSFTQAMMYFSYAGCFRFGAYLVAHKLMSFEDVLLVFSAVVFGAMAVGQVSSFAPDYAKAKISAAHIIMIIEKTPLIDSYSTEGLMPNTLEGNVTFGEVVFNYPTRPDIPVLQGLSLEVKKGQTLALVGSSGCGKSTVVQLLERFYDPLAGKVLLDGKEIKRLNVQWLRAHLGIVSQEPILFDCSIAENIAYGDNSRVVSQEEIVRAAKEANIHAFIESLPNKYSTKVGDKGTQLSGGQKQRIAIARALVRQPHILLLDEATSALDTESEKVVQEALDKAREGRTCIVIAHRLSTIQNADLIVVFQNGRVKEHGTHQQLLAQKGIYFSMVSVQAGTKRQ
Experimental: The MDCK assays provide information on the potential of a compound to pass the blood brain barrier. Permeability measurements across polarized, confluent MDCK-MDR1 cell monolayers grown on permeable filter supports are used as an in vitro absorption model: apparent permeability coefficients (PE) of the compounds across the MDCK-MDR1 cell monolayers are measured (pH 7.4, 37° C.) in apical-to-basal (AB) and basal-to-apical (BA) transport direction. The AB permeability (PEAB) represents drug absorption from the blood into the brain and the BA permeability (PEBA) drug efflux from the brain back into the blood via both, passive permeability as well as active transport mechanisms mediated by efflux and uptake transporters that are expressed on the MDCK-MDR1 cells, predominantly by the overexpressed human MDR1. Identical or similar permeabilities in both transport directions indicate passive permeation (PEBA/PEAB≤1), vectorial permeability points to additional active transport mechanisms. Higher PEBA than PEAB (PEBA/PEAB>5) indicates the involvement of active efflux mediated by MDR1, which might compromise the goal to achieve sufficient brain exposure. Therefore, this assay provides valuable support for selection of compounds applicable for further in vivo testing. High permeability not limited by efflux at the blood brain barrier is a favorable characteristic for compounds that are to be used for drugs acting primarily in the CNS.
Apparent permeability coefficients (Papp) of the compounds across the MDCK-MDR1 monolayers (MDCKII cells transfected with human MDR1 cDNA expression plasmid) are measured in apical-to-basal (AB) and basal-to-apical (BA) direction. MDCK-MDR1 cells (6×10^5 cells/cm^2) are seeded on filter inserts (Corning, Transwell, polycarbonate, 0.4 μm pore size) and cultured for 9 to 10 days. Compounds dissolved in DMSO stock solution (1-20 mM) are diluted with HTP-4 aqueous buffer (128.13 mM NaCl, 5.36 mM KCl, 1 mM MgSO4, 1.8 mM CaCl2, 4.17 mM NaHCO3, 1.19 mM Na2HPO4, 0.41 mM NaH2PO4, 15 mM HEPES, 20 mM glucose, pH 7.4) supplemented with 0.25% BSA to prepare the transport solutions (final concentration: 1 or 10 μM, final DMSO<=0.5%). The transport solution is applied to the apical or basolateral donor side for measuring A-B or B-A permeability, respectively. The receiver side contains HTP-4 buffer supplemented with 0.25% BSA. Samples are collected at the start and end of experiment from the donor and at various time intervals for up to 2 hours also from the receiver side for concentration measurement by HPLC-MS/MS (RapidFire High-throughput MS System (Agilent) coupled to QTrap 6500 (AB Sciex) or TSQ Vantage (Thermo Scientific)). Sampled receiver volumes are replaced with fresh receiver solution. Efflux ratio is calculated dividing the Papp (b-a) values by the Papp (a-b) values.

Nav1.6 = Nav1.6 (Homo sapiens, UniProt Q9UQD0); experiment: Nav 1.6 inhibition, IonWorks Quattro electrophysiology; format: cell-based; details: for inhibition at 1 µM / inhibition at 5 µM: normalized to vehicle control (0%) and maximal inhibition control (100%); for inhibition of Nav1.6 currents (in words): reference compounds, FIG. 1 and FIG. 2
Sequence of Nav1.6 (Q9UQD0 whole entry): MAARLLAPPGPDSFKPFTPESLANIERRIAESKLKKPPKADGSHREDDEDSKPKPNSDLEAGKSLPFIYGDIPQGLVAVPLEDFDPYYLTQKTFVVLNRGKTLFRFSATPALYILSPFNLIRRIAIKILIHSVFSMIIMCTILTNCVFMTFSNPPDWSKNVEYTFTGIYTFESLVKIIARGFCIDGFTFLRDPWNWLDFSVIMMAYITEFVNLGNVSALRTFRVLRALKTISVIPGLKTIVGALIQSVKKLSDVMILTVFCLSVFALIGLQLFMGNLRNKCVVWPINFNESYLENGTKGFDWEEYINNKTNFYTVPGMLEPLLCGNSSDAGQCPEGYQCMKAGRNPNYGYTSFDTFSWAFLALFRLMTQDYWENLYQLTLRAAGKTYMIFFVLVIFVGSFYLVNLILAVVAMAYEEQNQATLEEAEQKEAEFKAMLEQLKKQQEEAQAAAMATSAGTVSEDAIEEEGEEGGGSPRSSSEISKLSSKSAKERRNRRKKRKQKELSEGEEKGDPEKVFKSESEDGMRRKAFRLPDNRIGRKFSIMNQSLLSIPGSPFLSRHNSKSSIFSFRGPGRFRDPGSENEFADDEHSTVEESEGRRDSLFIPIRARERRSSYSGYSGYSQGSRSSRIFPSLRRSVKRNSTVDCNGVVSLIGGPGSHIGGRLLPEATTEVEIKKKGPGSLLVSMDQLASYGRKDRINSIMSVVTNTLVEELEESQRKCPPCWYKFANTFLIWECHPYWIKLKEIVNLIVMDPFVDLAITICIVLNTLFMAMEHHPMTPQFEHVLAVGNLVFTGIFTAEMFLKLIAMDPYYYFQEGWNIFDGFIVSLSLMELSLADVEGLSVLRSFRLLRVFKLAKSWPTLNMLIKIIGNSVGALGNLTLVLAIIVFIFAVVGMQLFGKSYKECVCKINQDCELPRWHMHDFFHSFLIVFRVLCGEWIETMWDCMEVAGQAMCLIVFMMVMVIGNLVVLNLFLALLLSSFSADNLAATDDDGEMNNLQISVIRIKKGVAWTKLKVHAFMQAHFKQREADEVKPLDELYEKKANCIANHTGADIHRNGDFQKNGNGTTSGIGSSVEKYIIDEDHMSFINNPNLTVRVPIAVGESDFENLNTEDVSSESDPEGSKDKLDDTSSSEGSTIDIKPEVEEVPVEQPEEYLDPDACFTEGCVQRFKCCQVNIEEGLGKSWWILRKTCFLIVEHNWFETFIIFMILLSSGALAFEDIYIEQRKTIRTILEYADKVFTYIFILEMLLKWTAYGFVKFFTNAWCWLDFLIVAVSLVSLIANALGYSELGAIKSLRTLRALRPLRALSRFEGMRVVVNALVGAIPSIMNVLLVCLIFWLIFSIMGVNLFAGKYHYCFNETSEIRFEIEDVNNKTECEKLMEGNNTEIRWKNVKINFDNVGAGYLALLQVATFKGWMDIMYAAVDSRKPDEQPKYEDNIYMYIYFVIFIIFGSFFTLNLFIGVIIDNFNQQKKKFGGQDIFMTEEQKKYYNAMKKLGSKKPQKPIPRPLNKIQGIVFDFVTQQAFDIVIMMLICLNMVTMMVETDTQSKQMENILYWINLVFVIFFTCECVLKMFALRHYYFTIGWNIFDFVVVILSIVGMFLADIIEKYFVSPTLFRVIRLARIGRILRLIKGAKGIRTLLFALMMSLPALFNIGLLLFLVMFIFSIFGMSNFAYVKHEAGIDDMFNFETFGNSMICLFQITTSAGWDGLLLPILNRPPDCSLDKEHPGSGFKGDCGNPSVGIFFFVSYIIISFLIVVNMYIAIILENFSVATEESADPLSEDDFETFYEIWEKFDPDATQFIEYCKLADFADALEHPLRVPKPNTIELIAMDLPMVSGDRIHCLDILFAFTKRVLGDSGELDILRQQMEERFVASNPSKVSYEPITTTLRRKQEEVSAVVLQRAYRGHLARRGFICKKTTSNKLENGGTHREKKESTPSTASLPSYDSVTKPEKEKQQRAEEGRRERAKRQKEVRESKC
Experimental: Determination of Nav 1.6.Inhibition
IonWorks Quattro electrophysiological platform
The compounds were prepared in DMSO at 300× the final assay concentrations of 1 and 5 μM.
The 300×DMSO stock solutions were transferred into assay plates where 2 μl per well of each 300× stock solution were placed. All assay plates were stored at −80° C. until the day of assay.
On the day of the assay, the appropriate assay plate was thawed at room temperature, centrifuged, and 198 μl of external recording solution was added and mixed thoroughly. This provided a 1:100 dilution. A further 1:3 dilution occurred upon addition to the cells in the IonWorks Quattro electrophysiological platform, giving a 1:300 dilution in total. On each assay plate, at least 8 wells were reserved for vehicle control (0.3% DMSO) and at least 8 wells for each positive control specific to the cell line tested. The positive controls were tested at a maximal blocking and an approximate IC50 concentration. As positive control Lidocaine at concentrations of 30 and 1000 μM was used.
The solutions for recording Nav1.6 currents were as follows:
Amphotericin B was used to obtain electrical access to the cell interior at a final concentration of 200 μg/ml in internal recording solution.
State-dependent inhibition: Sodium channels when held at depolarized potential or long test pulse, the channels open and inactivate and then stay inactivated until the membrane potential is stepped back to hyperpolarized potentials, when the inactivated channels recover from inactivation into closed state.
Cells were held at −120 mV. In order to completely inactivate the sodium channels (pulse 1), the cells were pulsed to +0 mV for 2500 ms and stepped back to −120 mV for 10 ms (to completely recover from inactivation, however channels that had drugs bound to them will not recover from inactivation) before stepping to +0 mV for 20 ms (pulse 2).
Both the positive and vehicle control data associated with each cell line assayed are shown below as an example. The mean is shown for each positive and negative control as solid symbol with the total number of individual well replicates given next to the solid symbol. In addition, the individual data of each well are shown on the graph as open symbols so that the variation about the mean value can be readily assessed.
Shown below are the assay controls for the Nav1.6 IonWorks Quattro assay.
Tables 3 and 4 show the normalized percentage inhibition of Nav1.6 channel. […] (see also the figure Assay Control Results above).

[1] = Metabolic stability in pooled human liver microsomes; format: in vitro ADME; details: pH 7.6, 1 μM compound, 37° C., NADPH, read-out: Half-life - t½ human liver microsomes
Description: Stability in human liver microsomes refers to the susceptibility of compounds to biotransformation in the context of selecting and/or designing drugs with favorable pharmacokinetic properties. The primary site of metabolism for many drugs is the liver. Human liver microsomes contain the cytochrome P450s (CYPs), and thus represent a model system for studying drug metabolism in vitro Enhanced stability in human liver microsomes is associated with several advantages, including increased bioavailability and adequate half-life, which can enable lower and less frequent dosing of patients. Thus, enhanced stability in human liver microsomes is a favorable characteristic for compounds that are to be used for drugs.
The metabolic degradation of the test compound was assayed at 37° C. with pooled human liver microsomes. The final incubation volume of 60 μl per time point contains TRIS buffer pH 7.6 at room temperature (0.1 M), magnesium chloride (5 mM aqueous solution), microsomal protein (1 mg/mL for human) and the test compound at a final concentration of 1 μM. Following a short preincubation period at 37° C., the reactions were initiated by addition of betanicotinamide adenine dinucleotide phosphate, reduced form (NADPH, 1 mM), and terminated by transferring an aliquot into acetonitril after different time points. After centrifugation (10000 g, 5 min), an aliquot of the supernatant was assayed by HPLC-MS/MS as described above for the MDCK assay P-gp for the amount of parent compound. The half-life was determined by the slope of the semi-logarithmic plot of the concentration-time profile.

NMDA NR1/NR2B receptor = molecular target: T2, NMDA NR1/NR2B receptor (Homo sapiens, UniProt Q05586+Q13224); experiment: In vitro NMDA NR1/NR2B cell assay (FLIPR, intracellular calcium induced by glycine/glutamate); format: cell-based; details: HEK293 cells expressing NMDA NR1/NR2B; 20 μM glycine, 1 μM glutamate; read-out: IC50 (in vitro NR2B affinity, FLIPR assay)
T2 construct: host or cells: HEK293, tetracycline-inducible expression
T2 sequence (Q13224 27-1484, other chains not shown): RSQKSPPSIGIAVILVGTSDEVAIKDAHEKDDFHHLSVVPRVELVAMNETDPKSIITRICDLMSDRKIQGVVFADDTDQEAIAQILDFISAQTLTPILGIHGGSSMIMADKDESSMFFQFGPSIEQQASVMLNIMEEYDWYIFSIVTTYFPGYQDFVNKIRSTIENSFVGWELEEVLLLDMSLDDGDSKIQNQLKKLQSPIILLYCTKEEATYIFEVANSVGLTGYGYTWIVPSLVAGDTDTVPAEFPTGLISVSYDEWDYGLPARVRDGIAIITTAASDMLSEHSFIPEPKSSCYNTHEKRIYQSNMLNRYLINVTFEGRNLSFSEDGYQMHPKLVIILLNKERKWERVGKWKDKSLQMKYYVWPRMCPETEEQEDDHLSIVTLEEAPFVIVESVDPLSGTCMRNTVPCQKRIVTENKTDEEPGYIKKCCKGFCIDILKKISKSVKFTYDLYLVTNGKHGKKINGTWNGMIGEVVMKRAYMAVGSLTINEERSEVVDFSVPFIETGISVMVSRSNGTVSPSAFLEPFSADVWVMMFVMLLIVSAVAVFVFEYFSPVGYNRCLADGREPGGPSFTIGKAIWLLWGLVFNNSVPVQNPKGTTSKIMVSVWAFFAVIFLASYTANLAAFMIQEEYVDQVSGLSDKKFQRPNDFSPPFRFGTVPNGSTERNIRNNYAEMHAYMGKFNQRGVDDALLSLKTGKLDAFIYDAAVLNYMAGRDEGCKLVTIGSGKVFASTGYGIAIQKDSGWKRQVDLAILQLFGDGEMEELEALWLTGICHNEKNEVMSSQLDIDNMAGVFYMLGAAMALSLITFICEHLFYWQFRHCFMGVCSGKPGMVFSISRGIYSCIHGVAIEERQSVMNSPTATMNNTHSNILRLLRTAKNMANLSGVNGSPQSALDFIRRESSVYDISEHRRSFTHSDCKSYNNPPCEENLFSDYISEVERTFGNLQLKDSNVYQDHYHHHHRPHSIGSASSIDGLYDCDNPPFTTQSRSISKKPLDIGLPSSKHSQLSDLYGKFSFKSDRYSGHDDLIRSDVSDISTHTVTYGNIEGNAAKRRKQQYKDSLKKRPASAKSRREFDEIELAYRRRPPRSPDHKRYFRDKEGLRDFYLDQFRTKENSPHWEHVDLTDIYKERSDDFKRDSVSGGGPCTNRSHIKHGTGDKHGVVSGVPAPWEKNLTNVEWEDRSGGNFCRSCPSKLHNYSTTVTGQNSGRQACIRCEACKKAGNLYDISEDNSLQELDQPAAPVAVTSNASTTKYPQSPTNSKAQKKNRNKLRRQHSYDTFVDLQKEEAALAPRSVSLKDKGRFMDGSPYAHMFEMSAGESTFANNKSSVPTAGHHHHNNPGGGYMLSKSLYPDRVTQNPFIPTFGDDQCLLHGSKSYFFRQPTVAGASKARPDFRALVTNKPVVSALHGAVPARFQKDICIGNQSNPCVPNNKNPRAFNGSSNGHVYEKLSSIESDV
Experimental: A human HEK293 cell line with tetracyclin-inducible expression of NMDA NR1/NR2B receptor was used as a test system for compound efficacy and potency. The cell line was purchased from ChanTest, Catalog #CT6121. Compound activity was determined by measuring the effect of compounds on intracellular calcium concentration induced by glycine/glutamate agonism in a FLIPRtetra system (Molecular Devices).
The cells were obtained as frozen cells in cryo-vials and stored until use at −150° C. Cells were grown in culture medium (DMEM/F12, 10% FBS, 5 μg/mL Blasticidin, 150 μg/mL Zeozin, 500 μg/mL Geneticin). […] For sub-culturing the cells were detached from flasks by Versene. For the assay, cells were detached, washed twice with induction medium (DMEM/F12 without glutamine, 10% FBS, 2 μg/mL Tetracycline, 2 mM Ketamine) and seeded to 384 well pure coat amine plates (Becton Dickinson, 50000 cells per well in 50 μl) 48 h prior to assay in induction medium.
The test compounds were dissolved in 100% DMSO at a concentration of 10 mM and in a first step diluted in DMSO to a concentration of 5 mM, followed by serial dilution steps in 100% DMSO. Dilution factor and number of dilution steps may vary according to needs. Typically 8 different concentrations by 1:5 dilutions were prepared in duplicate, further intermediate dilutions (1:37.5) of the substances were carried out with aqueous assay buffer (137 mM NaCl, 4 mM KCl, 1.8 mM CaCl2, 10 mM HEPES, 10 mM Glucose, pH 7.4) resulting in a compound concentration 3 times above the final test concentration and DMSO at 2.7% resulting in 0.9% final DMSO concentration in the assay.
At the assay day cells were washed 3× with assay buffer (as described above), 10 μL buffer remained in the wells after washing. 10 μL Ca kit loading buffer (AAT Bioquest; prepared from the kit containing the following components: Component A: Fluo-8 NW dissolved in 200 μL DMSO and 20 μl of this solution are mixed with 10 ml buffer prepared out of component B and C, Component B: 10× Pluronic® F127 Plus diluted 1:10 in component C, Component C: HHBS (Hanks with 20 mM Hepes) was added to the cells and the plates were incubated with lid for 60 minutes at room temperature. 20 μl assay buffer containing 60 μM glycine (20 μM final) and 3 μM glutamate (1 μM final) was added to column 1-23, column 24 got assay buffer without glycine/glutamate to serve as negative unstimulated control. Fluorescence (indicating the calcium influx as a result of the NR1/NR2B ion channel activation) was read on the FLIPRtetra device for 60 seconds to monitor the glutamate induced effects. After 2 minutes 20 μL of compound dilution prepared as described above or controls (row 1-22) in assay buffer were carefully added to the wells. […] The average of 2 measurements at 5 minutes and […] 10 seconds after compound addition is calculated and further used for IC50 calculations. Each assay microtiter compound dilution plate contained wells (in column 23 or 24) with DMSO controls instead of compound as controls for glycine/glutamate induced fluorescence (high controls) and wells with 1 μM of a reference NR2B NAM as low controls (Compound 22; reference: Layton, Mark E et al, ACS Chemical Neuroscience 2011, 2(7), 352-362).
The output file of the reader contains the well number and measured average fluorescence units. For data evaluation and calculation, the measurement of the low control was set as 0% control and the measurement of the high control was set as 100% control. The IC50 values were calculated using the standard 4 parameter logistic regression formula. Calculation: [y=(a−d)/(1+(x/c)^b)+d], a=low value, d=high value; x=conc M; c=IC50 M; b=slope.

Compound: CNC(=O)[C@@H]1CN(Cc2ccc(Oc3ccc(F)cc3)nc2)CCO1 [Example 14]
IC50 (NMDA NR1/NR2B receptor): 198 nM

Compound: CNC(=O)[C@@H]1CN(Cc2ccc(Oc3ccc(Cl)cc3)nc2)CCO1 [Example 16]
IC50 (NMDA NR1/NR2B receptor): 205 nM

Compound: CNC(=O)[C@@H]1CN(Cc2ccc(Oc3ccccc3)cn2)CCO1 [Example 35]
IC50 (NMDA NR1/NR2B receptor): 457 nM

Compound: CNC(=O)[C@@H]1CN(Cc2ccc(Oc3ccccc3)nc2)CCO1 [Example 36]
IC50 (NMDA NR1/NR2B receptor): 353 nM

Compound: CNC(=O)[C@@H]1CN(Cc2ccc(Oc3c(F)cccc3F)nc2)CCO1 [Example 37]
IC50 (NMDA NR1/NR2B receptor): 203 nM

Compound: CNC(=O)[C@@H]1CN(Cc2ccc(Oc3c(C)cccc3F)nc2)CCO1 [Example 38]
IC50 (NMDA NR1/NR2B receptor): 419 nM

Compound: CNC(=O)[C@@H]1CN(Cc2ccc(Oc3c(F)cccc3F)cn2)CCO1 [Example 39]
IC50 (NMDA NR1/NR2B receptor): 282 nM

Compound: CNC(=O)[C@@H]1CN(Cc2ccc(Oc3cc(F)ccc3F)nc2)CCO1 [Example 40]
IC50 (NMDA NR1/NR2B receptor): 452 nM

Compound: CNC(=O)[C@@H]1CN(Cc2ccc(Oc3cc(F)ccc3Cl)nc2)CCO1 [Example 41]
IC50 (NMDA NR1/NR2B receptor): 286 nM

Compound: CCN(CC)CC(=O)Nc1c(C)cccc1C [Lidocaine, reference compound]
inhibition at 1000 µM (Nav1.6; read-out: maximum inhibition at P1 (not normalized)): 46.4 to 47.2%
inhibition of Nav1.6 currents (in words) (Nav1.6): inhibited evoked currents in a concentration and use dependent manner

Compound: CCCCNc1ccc(C(=O)OCCN(C)C)cc1 [Tetracaine, reference compound]
inhibition of Nav1.6 currents (in words) (Nav1.6): much stronger at depolarized potentials than at hyperpolarized potential

Continued, values first:

Papp A→B at 2 h (MDR1 (P-gp)): 72 ×10⁻⁶ cm/s
efflux ratio at 2 h (MDR1 (P-gp)): 0.6
inhibition at 1 µM (Nav1.6): 4.2%
inhibition at 5 µM (Nav1.6): -3.6%
half-life at 1 μM [1]: > 2.17 h
Compound: CNC(=O)C1CN(Cc2ccc(Oc3ccc(F)cc3F)nc2)CCO1 (stereo not shown) [Example 11]

IC50 (NMDA NR1/NR2B receptor): 103 nM
Compound: CNC(=O)[C@@H]1CN(Cc2ccc(Oc3ccc(F)cc3F)nc2)CCO1 [Example 11]

Papp A→B at 2 h (MDR1 (P-gp)): 80 ×10⁻⁶ cm/s
efflux ratio at 2 h (MDR1 (P-gp)): 0.7
inhibition at 1 µM (Nav1.6): 5.1%
inhibition at 5 µM (Nav1.6): 10.2%
half-life at 1 μM [1]: > 2.17 h
Compound: CNC(=O)C1CN(Cc2ccc(Oc3ccc(C)cc3F)nc2)CCO1 (stereo not shown) [Example 12]

IC50 (NMDA NR1/NR2B receptor): 117 nM
Compound: CNC(=O)[C@@H]1CN(Cc2ccc(Oc3ccc(C)cc3F)nc2)CCO1 [Example 12]

Papp A→B at 2 h (MDR1 (P-gp)): 45 ×10⁻⁶ cm/s
efflux ratio at 2 h (MDR1 (P-gp)): 1
inhibition at 1 µM (Nav1.6): -3.1%
inhibition at 5 µM (Nav1.6): -1.8%
half-life at 1 μM [1]: > 2.17 h
Compound: CNC(=O)C1CN(Cc2ccc(Oc3ccc(C)cc3C)nc2)CCO1 (stereo not shown) [Example 13]

IC50 (NMDA NR1/NR2B receptor): 442 nM
Compound: CNC(=O)[C@@H]1CN(Cc2ccc(Oc3ccc(C)cc3C)nc2)CCO1 [Example 13]

IC50 (NMDA NR1/NR2B receptor): 69 nM
Compound: CNC(=O)[C@@H]1CN(Cc2ccc(Oc3ccc(Cl)cc3F)nc2)CCO1 [Example 15]

Reference: patent US11155539B2, “4-pyridinylmethyl-morpholine derivatives and the use thereof as medicament” (Boehringer Ingelheim International GmbH, priority 2018, dated 2021)
